The supplement of paper PMC10307832

Columns and labels:
Test in all cases: relative viability (nuclei count vs DMSO), 5 days (fraction); higher = more cells survive
[1] = compound: C1/C(=C\C2=CC=CS2)/C(=O)/C(=C/C3=CC=CS3)/C1 + Cc1cc(Nc2cc(N3CCN(C)CC3)nc(Sc3ccc(NC(=O)C4CC4)cc3)n2)n[nH]1 [Tozasertib] (partner 0.1 µM)
How it was run: (§1)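 Lung cancer cell lines were seeded in 1536-well plates and dosed by pin tool the next day, with either a single drug or a fixed anchor-drug dose combined with five library-drug doses (not always all listed) spaced in √10 steps. Five days later, one step fixed the cells and stained their nuclei (final 0.05% Triton X-100, 1% formaldehyde, 1 ug/ml Hoechst), and nuclei were counted on 4× images. Relative viability is the nuclei count in treated wells divided by the count in vehicle wells, and each value is the median of duplicate plates.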

TPCA-1 + Linsitinib = compound: C1=CC(=CC=C1C2=CC(=C(S2)NC(=O)N)C(=O)N)F [TPCA-1] + C[C@]1(O)C[C@@H](c2nc(-c3ccc4ccc(-c5ccccc5)nc4c3)c3c(N)nccn32)C1 [Linsitinib] (partner 1 µM)
How it was run: as §1

[2] = compound: C[C@]12O[C@H](C[C@]1(O)CO)n1c3ccccc3c3c4c(c5c6ccccc6n2c5c31)CNC4=O [Lestaurtinib] + N=C(N)NC(=N)NCCc1ccccc1 [Phenformin] (partner 250 µM)
How it was run: as §1

[3] = compound: C1/C(=C\C2=CC=CS2)/C(=O)/C(=C/C3=CC=CS3)/C1 + O=C(CCCCCCC(=O)Nc1ccccc1)NO [Vorinostat] (partner 1 µM)
How it was run: as §1

Cell Line | relative viability ([1]; first compound 0.2 µM) | relative viability ([1]; first compound 0.6325 µM) | relative viability ([1]; first compound 2 µM) | relative viability ([1]; first compound 20 µM) | relative viability (TPCA-1 + Linsitinib; first compound 0.04 µM) | relative viability (TPCA-1 + Linsitinib; first compound 0.1265 µM) | relative viability (TPCA-1 + Linsitinib; first compound 0.4 µM) | relative viability (TPCA-1 + Linsitinib; first compound 1.265 µM) | relative viability (TPCA-1 + Linsitinib; first compound 4 µM) | relative viability ([2]; first compound 0.005 µM) | relative viability ([2]; first compound 0.01581 µM) | relative viability ([2]; first compound 0.05 µM) | relative viability ([2]; first compound 0.1581 µM) | relative viability ([2]; first compound 0.5 µM) | relative viability ([3]; first compound 0.2 µM) | relative viability ([3]; first compound 0.6325 µM) | relative viability ([3]; first compound 2 µM) | relative viability ([3]; first compound 6.325 µM) | relative viability ([3]; first compound 20 µM) | relative viability ([1]; first compound 6.325 µM)
NCI-H2347 | 0.666 | 0.574 | 0.596 | 0.738 | 1.14 | 1.02 | 0.899 | 0.931 | 0.903 | 0.304 | 0.448 | 0.316 | 0.309 | 0.39 | 0.627 | 0.561 | 0.601 | 0.61 | 0.667 | –
NCI-H2405 | 0.775 | 0.774 | 0.862 | 0.76 | 1.05 | 0.806 | 0.988 | – | 0.914 | 0.426 | 0.392 | 0.387 | 0.28 | 0.284 | 0.991 | 1.02 | 1.08 | 0.876 | 1.14 | 0.72
NCI-H3122 | 0.393 | 0.498 | 0.396 | 0.442 | 1.11 | 0.983 | 0.981 | 0.985 | 1.02 | 0.365 | 0.431 | 0.372 | 0.363 | 0.175 | 1.08 | 1.08 | 0.907 | 0.639 | 0.708 | 0.391
PC-3 [JPC-3] | 0.924 | 0.843 | 0.824 | 0.896 | 0.968 | 0.875 | 0.946 | 0.9 | 0.937 | 0.434 | 0.504 | 0.352 | 0.477 | 0.386 | – | 0.985 | 0.954 | 0.74 | 1.03 | 0.746
PC-14 | 0.604 | 0.59 | 0.597 | 0.595 | 0.939 | 0.978 | 0.926 | 0.966 | 0.692 | 0.445 | 0.871 | 0.633 | 0.353 | 0.106 | 0.855 | 0.809 | 0.843 | 0.614 | 0.687 | 0.571
RERF-LC-KJ | 0.475 | 0.566 | 0.533 | 0.455 | 1.02 | 0.82 | 0.857 | 0.896 | 0.905 | 0.448 | 0.38 | 0.391 | 0.419 | 0.295 | 0.735 | 0.723 | 0.713 | 0.645 | 0.675 | 0.46
SK-LU-1 | 0.329 | 0.385 | 0.419 | 0.36 | 1.19 | 1.07 | 1.11 | 0.681 | 0.425 | 0.46 | 0.488 | 0.293 | 0.329 | 0.163 | 0.849 | 0.764 | 0.75 | 0.677 | 0.774 | 0.271
SK-MES-1 | 0.922 | 0.977 | 0.942 | 0.831 | 1.17 | 0.985 | 1.01 | 0.859 | 0.634 | 0.693 | 0.59 | 0.484 | 0.441 | 0.186 | 1.18 | 1.13 | 1.1 | 0.985 | 1.11 | 0.818
SW 1573 | 0.175 | 0.13 | 0.176 | 0.139 | 1.03 | 0.881 | 0.807 | 0.802 | 0.643 | 0.421 | 0.439 | 0.214 | 0.28 | 0.0937 | 0.756 | 0.971 | 0.89 | 0.721 | 0.808 | 0.158
